Read-outs that look alike come from different tables or passages of the source.
How the values were obtained:
[1] = biological target: T1, Renal Dipeptidase (RDP) (Homo sapiens, UniProt P16444); settings: read-out: RDP inhibition Ki; colon cancer lysate; Table 1
Procedure: The assay buffer was prepared by mixing 20 mM Tris, pH=8, 10 μM ZnCl2. 1 mM substrate (ε-DNP-L-Lys-D-Amp) stock solution in DMSO was prepared. Inhibitors were diluted from MeOH stock solution in water. […] of lysate was taken in 150 μl of assay buffer and 20 μl of inhibitor was added. The mixture was incubated at room temperature for 30 min. It was then transferred to plate containing 2 μl/well, 1 mM substrate in DMSO. After mixing incubated at 37° C. Florescence was measured at 30 sec intervals. The IC50 values were determined using small Intestine lysate. Ki values were determined for selected compounds using colon cancer lysate.
(§1) The RDP inhibition activity of these compounds was determined using crude lysates prepared from human colon cancers. The results are expressed as the concentration of inhibitor needed to inhibit enzyme activity by 50% (IC50). Human colon cancer extracts were prepared by homogenizing one cm^3 of frozen colon tissue in 10 ml of 20 mM Tris, pH 8.0, 10 μM ZnCl2, 0.1% Triton X 100. The extract was clarified by centrifugation at 13,000×g for 5 minutes at 4° C. and, for each measurement, 20 μl was diluted into 158 μl of 20 mM Tris, pH 8.0, 10 μM ZnCl2. 20 μl of the synthesised compounds were added to each reaction to obtain final concentrations ranging from 0 to 10 μM. The mixtures were incubated at room temperature for 30 minutes to allow enzyme-inhibitor complex formation, and the reactions were initiated by the addition of 2 μl of 1 mM substrate (εDNP-L-Lys-D-Amp).^14 While incubating at 37° C., fluorescence (λex=320 nm, λem=405 nm) measurements were determined at 30 sec intervals and the relative reaction rate was taken as the rate of increase of fluorescence over time.

[2] = biological target: T1, Renal Dipeptidase (RDP); settings: for RDP inhibitor potency in words / activity of Z isomers relative to their E counterparts (9, 11 and 13): human colon cancer lysate, numbering of Table 3; for IC50: read-out: RDP inhibition activity IC50, colon cancer lysate, Table 3
Procedure: as §1

[3] = biological target: T2, Renal Dipeptidase (RDP) (Homo sapiens, UniProt P16444); test: RDP inhibition assay (IC50), small intestine lysate, fluorogenic substrate ε-DNP-L-Lys-D-Amp; assay type: biochemical
T2 construct: from tissue; host or cells: small intestine lysate
T2 sequence (P16444 17-385): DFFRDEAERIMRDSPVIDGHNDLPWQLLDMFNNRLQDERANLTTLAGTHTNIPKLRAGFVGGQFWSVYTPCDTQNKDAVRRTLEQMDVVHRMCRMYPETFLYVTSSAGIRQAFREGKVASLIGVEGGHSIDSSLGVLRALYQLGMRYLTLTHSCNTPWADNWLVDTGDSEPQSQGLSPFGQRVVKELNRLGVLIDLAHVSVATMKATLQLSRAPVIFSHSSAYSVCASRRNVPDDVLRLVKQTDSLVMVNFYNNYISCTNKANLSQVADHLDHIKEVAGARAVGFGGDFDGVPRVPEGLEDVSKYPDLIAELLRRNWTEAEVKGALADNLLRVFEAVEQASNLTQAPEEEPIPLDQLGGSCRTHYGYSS
Procedure: Inhibitors were diluted from MeOH stock solution in water. […] After mixing incubated at 37° C. Florescence was measured at 30 sec intervals. The IC50 values were determined using small Intestine lysate.

Row | SMILES | Ki [1] | RDP inhibitor potency in words [2] | activity of Z isomers relative to their E counterparts (9, 11 and 13) [2] | IC50 [2] | IC50 ([3]; Table 1) | IC50 ([3]; Table 2)
1 | NC(CC1CCCCC1)P(=O)(O)C/C(=C\c1ccc(F)cc1)C(=O)O (centres unmarked) [compound 8] | 0.6 nM | potent RDP inhibitors | significantly more active | 5.5 nM | 5 nM | –
2 | NC(CC1CCCCC1)P(=O)(O)CC(=Cc1ccc(I)cc1)C(=O)O (mixture of isomers) [compound 14] | 3 nM | – | – | – | 45 nM | –
3 | NC(CC1CCCCC1)P(=O)(O)C/C(=C\c1ccc(I)cc1)C(=O)O (centres unmarked) [compound 12] | 0.6 nM | potent RDP inhibitors | significantly more active | 3.5 nM | 8 nM | –
4 | NC(CC1CCCCC1)P(=O)(O)C/C(=C\c1ccc(Br)cc1)C(=O)O (centres unmarked) [compound 10] | 0.72 nM | potent RDP inhibitors | significantly more active | 8 nM | 6 nM | –
5 | NC(CC1CCCCC1)P(=O)(O)C/C(=C/c1ccc(F)cc1)C(=O)O (centres unmarked) [compound 9] | 0.72 nM | – | – | 300 nM | 15 nM | –
6 | NC(CC1CCCCC1)P(=O)(O)C/C(=C\c1ccc(C(F)(F)F)cc1)C(=O)O (centres unmarked) [compound 18] | – | – | – | – | – | 10 nM
7 | NC(CC1CCCCC1)P(=O)(O)C/C(=C/c1ccc(I)cc1)C(=O)O (centres unmarked) [compound 13] | 2 nM | – | – | 60 nM | 25 nM | –
8 | NC(CC1CCCCC1)P(=O)(O)C/C(=C/c1ccc(Br)cc1)C(=O)O (centres unmarked) [compound 11] | 2.4 nM | – | – | 25 nM | 30 nM | –
9 | NC(CC1CCCCC1)P(=O)(O)C/C(=C/c1ccc(C(F)(F)F)cc1)C(=O)O (centres unmarked) [compound 19] | – | – | – | – | – | 200 nM
10 | CCN(CC)c1ccc(/C=C(/CP(=O)(O)C(N)CC2CCCCC2)C(=O)O)cc1 (centres unmarked) [compound 27] | – | – | – | – | – | 150 nM
11 | NC(CC1CCCCC1)P(=O)(O)CC(=Cc1ccc(I)cc1)C(=O)O (mixture of isomers) [compound 15] | 10 nM | far less active | – | 45 nM | 250 nM | –
12 | NC(CC1CCCCC1)P(=O)(O)C/C(=C\c1ccccc1)C(=O)O (centres unmarked) [compound 6] | 1.12 nM | – | – | – | 28 nM | –
13 | CCN(CC)c1ccc(/C=C(\CP(=O)(O)C(N)CC2CCCCC2)C(=O)O)cc1 (centres unmarked) [compound 26] | – | – | – | – | – | 70 nM
14 | NC(CC1CCCCC1)P(=O)(O)C/C(=C/c1ccccc1)C(=O)O (centres unmarked) [compound 7] | 1.6 nM | – | – | – | 40 nM | –
